Test results from patent US10906905B2, “Five-membered heteroaryl ring bridged ring derivative, preparation method therefor and medical use thereof” (Jiangsu Hengrui Medicine Co., Ltd., priority 2016, dated 2021).

Columns and labels:
[1] = target: recombinant human VEGFR2 enzyme (Homo sapiens (Human), UniProt P35968); test: Inhibition of VEGFR2 kinase activity (Z'-LYTE Kinase Assay Kit); assay type: biochemical; conditions: ATP 50 μM; read-out: IC50 of inhibition effect on VEGFR2 kinase activity
Experimental: The inhibition effect of VEGFR2 kinase activity in vitro was determined by the following method.
The inhibition effect of the compounds of the present invention on VEGFR2 kinase activity was determined by the following experimental method:
After reaction at 25° C. for 2 hours, 5 μL of detection reagent was added to each well. […] The IC50 values of the compounds for enzyme inhibition were calculated using Graphpad prism software based on each concentration of the compound and the corresponding signal value thereof.

[2] = Pharmacokinetics assay in rats after intragastrical administration; assay type: in vivo; conditions: both sexes, Sprague-Dawley, rat, plasma, po, SD rats, 2 mg/kg; for Vd/F: read-out: Apparent distribution volume Vz/F; for AUC: read-out: Area under curve AUC; for CL/F: read-out: Clearance CLz/F; for half-life: read-out: Half-life T1/2 (converted); for Cmax: read-out: Plasma concentration Cmax; for MRT: read-out: Residence time MRT
Experimental: Rats were used as test animals. The drug concentration in plasma at different time points was determined by LC/MS/MS method after intragastrical administration of the compounds of Examples 1-1, 1-2, 2-1, 3-1, the compound with retention time of 6.631 minutes among Examples 9-1 and 9-2, and the compounds of Examples 33 and 39-1 to rats. The pharmacokinetic behavior of the compounds of the present invention was studied and evaluated in rats.
Compounds of Examples 1-1, 1-2, 2-1, 3-1, compound with retention time of 6.631 minutes among Examples 9-1 and 9-2, and compounds of Examples 33 and 39-1.
Twenty-eight healthy adult Sprague-Dawley (SD) rats (half male and half female) were purchased from SINO-BRITISH SIPPR/BK LAB. ANIMAL LTD., CO, with Certificate No.: SCXK (Shanghai) 2008-0016, and equally divided into 7 groups (4 rats per group).
A certain amount of the test compound was weighed, and added with 5% by volume of DMSO, 5% by volume of Tween 80, and 90% by volume of physiological saline were added to prepare a 0.2 mg/mL colorless, clear and transparent solution.
After an overnight fast, SD rats were administered intragastrically the test compounds at an administration dosage of 2.0 mg/kg and an administration volume of 10.0 mL/kg.
The rats were intragastrically administered the compounds of Examples 1-1, 1-2, 2-1, 3-1, the compound with retention time of 6.631 minutes among Examples 9-1 and 9-2, and the compounds of Examples 33 and 39-1.0.2 mL of blood was taken from the orbital sinus before administration and at 0.5, 1.0, 2.0, 4.0, 6.0, 8.0, 11.0 and 24.0 hours after administration. The samples were stored in heparinized tubes, and centrifuged for 10 minutes at 4° C. at 3,500 rpm to separate the blood plasma. The plasma samples were stored at −20° C. The rats were fed 2 hours after administration.
The content of the test compounds in the plasma of rats after intragastrical administration of the test compounds at different concentrations was determined: 25 μL of rat plasma at each time after administration was taken, added with 50 μL (100 ng/mL) of the internal standard solution of camptothecin and 175 μL of acetonitrile, shaken vertically for 5 minutes, and centrifuged for 10 minutes (4000 rpm). 3.0 μL of the supernatant was taken from the plasma samples for LC/MS/MS analysis.

p38α kinase = p38α kinase (Homo sapiens (Human), UniProt Q16539); test: Inhibition of p38α kinase activity (p38α kinase assay kit, ADP-Glo); assay type: biochemical; conditions: ATP 50 μM; read-out: IC50 of inhibition effect on p38α kinase activity
Experimental: The inhibition of p38α kinase activity in vitro was determined by the following method.
The inhibition effect of the compounds of the present invention on p38a kinase activity was determined by the following experimental method:
p38α kinase assay kit (V9591, Promega) was used to assay enzyme activity. 2 μl of enzyme solution (the final concentration of enzyme in the reaction system was 0.5 ng/μL) formulated with reaction buffer (40 mM Tris pH 7.5, 20 mM MgCl2, 0.1 mg/ml BSA), 1 μl of a 3-fold gradient dilution of the compounds dissolved in 5% DMSO, and 2 μl of a mixed solution of ATP and p38 substrate peptide (the final concentration of ATP was 50 μM, and the final concentration of substrate was 0.2 μg/μL) were added successively to a 384-well plate (4514, Corning). After reaction at 27° C. for 2.5 hours, 5 μl of ADP-Glo solution in the kit was added to each well, then the plate was placed at 27° C. for 40 minutes. 10 μl of kinase assay reagent was then added to each well, then the plate was placed at 27° C. for 30 minutes. The chemiluminescence signal values were measured with a Victor 3 (PerkinElmer) multi-function microplate reader. The IC50 values of the compounds on enzyme inhibition were calculated using Graphpad prism software based on each concentration of the compound and the corresponding signal value thereof.

[3] = system: Smad signaling pathway of TGFβRI; test: Inhibition of Smad signaling pathway of TGFβRI (3TP-lux luciferase reporter in HepG2 cell); assay type: cell-based; conditions: Homo sapiens; HepG2 cell, 3TP-lux plasmid, 18 hours; read-out: IC50 on the inhibition of Smad signaling pathway of TGFβRI

Chain of p38α kinase (Q16539 whole entry): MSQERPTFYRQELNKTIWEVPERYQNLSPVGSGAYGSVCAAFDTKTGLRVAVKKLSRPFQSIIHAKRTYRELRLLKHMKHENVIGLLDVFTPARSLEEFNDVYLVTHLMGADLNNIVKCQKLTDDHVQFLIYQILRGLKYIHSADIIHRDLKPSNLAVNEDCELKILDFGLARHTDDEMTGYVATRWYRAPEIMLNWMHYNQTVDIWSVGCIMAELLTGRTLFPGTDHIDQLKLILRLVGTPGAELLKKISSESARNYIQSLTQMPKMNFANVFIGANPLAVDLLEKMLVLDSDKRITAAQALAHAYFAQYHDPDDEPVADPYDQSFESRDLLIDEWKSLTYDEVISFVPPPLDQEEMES
Chain of recombinant human VEGFR2 enzyme (P35968 20-1356): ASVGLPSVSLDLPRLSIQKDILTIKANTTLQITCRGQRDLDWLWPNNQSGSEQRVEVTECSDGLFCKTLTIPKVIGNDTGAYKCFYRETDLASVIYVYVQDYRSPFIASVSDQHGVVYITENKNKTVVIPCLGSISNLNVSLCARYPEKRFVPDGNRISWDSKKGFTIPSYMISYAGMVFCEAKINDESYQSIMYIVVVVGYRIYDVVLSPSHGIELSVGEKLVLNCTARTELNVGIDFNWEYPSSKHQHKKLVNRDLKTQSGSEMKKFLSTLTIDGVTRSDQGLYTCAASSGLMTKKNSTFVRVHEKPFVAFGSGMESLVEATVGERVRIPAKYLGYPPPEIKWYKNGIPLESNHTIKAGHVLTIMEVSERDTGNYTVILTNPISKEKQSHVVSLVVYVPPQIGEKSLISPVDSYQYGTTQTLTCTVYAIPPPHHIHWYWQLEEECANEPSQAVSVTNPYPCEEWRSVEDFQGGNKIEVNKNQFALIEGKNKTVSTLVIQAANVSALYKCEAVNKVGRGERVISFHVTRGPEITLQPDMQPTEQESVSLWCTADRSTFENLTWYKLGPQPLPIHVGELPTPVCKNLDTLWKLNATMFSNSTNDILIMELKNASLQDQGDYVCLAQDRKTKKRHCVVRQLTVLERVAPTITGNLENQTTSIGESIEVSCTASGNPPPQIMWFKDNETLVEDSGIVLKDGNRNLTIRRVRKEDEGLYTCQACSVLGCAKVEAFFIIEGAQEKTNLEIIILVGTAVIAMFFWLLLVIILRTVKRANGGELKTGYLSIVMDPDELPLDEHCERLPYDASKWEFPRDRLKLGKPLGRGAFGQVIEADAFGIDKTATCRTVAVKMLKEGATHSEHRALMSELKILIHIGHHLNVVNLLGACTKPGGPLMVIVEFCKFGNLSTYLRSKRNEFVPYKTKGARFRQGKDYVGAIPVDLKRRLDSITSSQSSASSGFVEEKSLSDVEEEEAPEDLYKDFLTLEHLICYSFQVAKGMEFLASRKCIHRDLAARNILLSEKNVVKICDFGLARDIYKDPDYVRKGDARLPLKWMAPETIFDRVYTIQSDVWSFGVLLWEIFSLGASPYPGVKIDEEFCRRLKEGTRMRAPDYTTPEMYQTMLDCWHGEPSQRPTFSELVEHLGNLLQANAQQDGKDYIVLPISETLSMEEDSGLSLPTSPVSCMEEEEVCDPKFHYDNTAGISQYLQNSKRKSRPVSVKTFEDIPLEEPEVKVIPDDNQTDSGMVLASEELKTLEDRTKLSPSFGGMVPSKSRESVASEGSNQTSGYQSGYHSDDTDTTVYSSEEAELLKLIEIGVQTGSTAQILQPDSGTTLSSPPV

IC50 [1] [nM] | Vd/F [2] [L/kg] | AUC [2] [ng·h/mL] | CL/F [2] [mL/min/kg] | half-life [2] [min] | Cmax [2] [ng/mL] | MRT [2] [h] | IC50 (p38α kinase) [nM] | IC50 [3] [nM] | SMILES
3050 | 23.5 ± 19.4 | 637 ± 355 | 68.6 ± 39.2 | 205 ± 77.4 | 208 ± 61 | 3.88 ± 0.26 | 618 | 36 | Cc1cccc(-c2nc3n(c2-c2ccc4nccc(C(N)=O)c4c2)[C@H]2CC[C@@H]3C2)n1 [Example 1-1, 6-((5S,8R)-2-(6-Methylpyridin-2-yl)-5,6,7,8-tetrahydro-5,8-methanoimidazo[1,2-a]pyridin-3-yl)quinoline-4-carboxamide]
1160 | 7.8 ± 1.33 | 664 ± 93 | 50.8 ± 7.2 | 106 ± 12 | 351 ± 52 | 2.3 ± 0.37 | 1710 | 21 | Cc1cccc(-c2nc3n(c2-c2ccc4nnc(C(N)=O)n4c2)[C@H]2CC[C@@H]3C2)n1 [Example 2-1, 6-((5S,8R)-2-(6-Methylpyridin-2-yl)-5,6,7,8-tetrahydro-5,8-methanoimidazo[1,2-a]pyridin-3-yl)[1,2,4]triazolo[4,3-a]pyridine-3-carboxamide]
2890 | 3.3 ± 1.1 | 800 ± 208 | 43.4 ± 10.4 | 52.1 ± 6 | 502 ± 128 | 1.43 ± 0.06 | 686 | 19 | Cc1cccc(-c2nc3n(c2-c2ccnc(-c4ccc(S(C)(=O)=O)cc4)c2)[C@H]2CC[C@@H]3C2)n1 [Example 3-1, (5S,8R)-2-(6-Methylpyridin-2-yl)-3-(2-(4-(methylsulfonyl)phenyl)pyridin-4-yl)-5,6,7,8-tetrahydro-5,8-methanoimidazo[1,2-a]pyridine]
6300 | 18.3 ± 17.4 | 689 ± 609 | 121 ± 116 | 124 ± 51.6 | 317 ± 269 | 2.44 ± 1.16 | 4730 | 24 | NC(=O)c1ccnc2ccc(-c3c(-c4ccc(F)cn4)nc4n3[C@H]3CC[C@@H]4C3)cc12 [Example 39-1, 6-((5S,8R)-2-(5-Fluoropyridin-2-yl)-5,6,7,8-tetrahydro-5,8-methanoimidazo[1,2-a]pyridin-3-yl)quinoline-4-carboxamide]
